Results taken from ChEMBL document CHEMBL1148534, “p38 MAP kinase inhibitors: metabolically stabilized piperidine-substituted quinolinones and naphthyridinones” (Bioorg Med Chem Lett, 2006).

Legend:
[1] = target: T1, Mitogen-activated protein kinase 14 (Homo sapiens, UniProt Q16539); experiment: Inhibition of TNF alpha release in THP1 cells; type: functional, cell-based, THP-1
[2] = target: T1, Mitogen-activated protein kinase 14; experiment: Inhibition of P38 alpha MAPK
[3] = target: T1, Mitogen-activated protein kinase 14; experiment: Inhibition of LPS stimulated TNF alpha release in whole blood; type: functional, tissue-based
[4] = Half life in rat, iv; type: ADME, organism-based; details: in vivo
[5] = Plasma clearance in rat; type: ADME, organism-based
[6] = Oral bioavailability in rat; type: ADME, organism-based; details: in vivo
[7] = Volume of distribution in rat; type: ADME, organism-based; details: in vivo, read-out: Vdss
[8] = Plasma clearance in rhesus monkey; type: ADME, organism-based, Macaca mulatta
[9] = Plasma clearance in dog; type: ADME, organism-based, Canis lupus familiaris
[10] = Volume of distribution in dog; type: ADME, organism-based, Canis lupus familiaris; details: in vivo, read-out: Vdss
[11] = Oral bioavailability in dog; type: ADME, organism-based, Canis lupus familiaris; details: in vivo
[12] = Half life in dog, iv; type: ADME, organism-based, Canis lupus familiaris; details: in vivo
[13] = Oral bioavailability in rhesus monkey; type: ADME, organism-based, Macaca mulatta; details: in vivo
[14] = Half life in rhesus monkey, iv; type: ADME, organism-based, Macaca mulatta; details: in vivo
[15] = Volume of distribution in rhesus monkey; type: ADME, organism-based, Macaca mulatta; details: in vivo, read-out: Vdss

T1 sequence (Q16539 whole entry): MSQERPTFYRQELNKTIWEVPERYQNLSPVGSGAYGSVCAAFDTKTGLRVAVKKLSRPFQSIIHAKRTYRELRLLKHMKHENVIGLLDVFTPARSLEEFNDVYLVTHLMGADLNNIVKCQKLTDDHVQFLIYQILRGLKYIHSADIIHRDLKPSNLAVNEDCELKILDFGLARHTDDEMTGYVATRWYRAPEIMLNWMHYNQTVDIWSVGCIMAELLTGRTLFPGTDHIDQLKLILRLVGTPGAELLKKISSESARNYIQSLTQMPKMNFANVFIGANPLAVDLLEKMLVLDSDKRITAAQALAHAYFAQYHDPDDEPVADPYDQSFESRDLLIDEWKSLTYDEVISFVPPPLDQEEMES

SMILES | IC50 [1] | IC50 [2] | IC50 [3] | half-life [4] | clearance [5] | bioavailability [6] | Vd [7] | clearance [8] | clearance [9] | Vd [10] | bioavailability [11] | half-life [12] | bioavailability [13] | half-life [14] | Vd [15]
CC(C)(C)N1CCC(c2cc(-c3ccccc3Cl)c3ccc(=O)n(-c4c(Cl)cccc4Cl)c3c2)CC1 | 1 nM | 0.1 nM | 6.4 nM |  |  |  |  |  |  |  |  |  |  |  | 
CC(C)(C)N1CCC(Oc2cc(-c3ccc(F)cc3Cl)c3ccc(=O)n(-c4c(Cl)cccc4Cl)c3c2)CC1 | 2.4 nM | 7.1 nM | 16.2 nM |  |  |  |  |  |  |  |  |  |  |  | 
CC(C)(C(=O)O)N1CCC(c2cc(-c3ccc(F)cc3Cl)c3ccc(=O)n(-c4c(Cl)cccc4Cl)c3c2)CC1 | 3.75 nM | 0.84 nM | 79.1 nM |  |  |  |  |  |  |  |  |  |  |  | 
O=c1ccc2c(-c3ccc(F)cc3Cl)cc(C3CC4CCC(C3)N4)cc2n1-c1c(Cl)cccc1Cl (stereo not given) | 0.89 nM | 0.45 nM | 14.5 nM | 2.56 h | 37 mL/min/kg | 13% | 6.2 L/kg |  |  |  |  |  |  |  | 
COC(=O)C(C)N1CCC(c2cc(-c3ccc(F)cc3Cl)c3ccc(=O)n(-c4c(Cl)cccc4Cl)c3c2)CC1 (stereo not given) | 1.3 nM | 8.1 nM | 28 nM |  |  |  |  |  |  |  |  |  |  |  | 
C[C@H](C(=O)O)N1CCC(c2cc(-c3ccc(F)cc3Cl)c3ccc(=O)n(-c4c(Cl)cccc4Cl)c3c2)CC1 | 3.8 nM | 3.2 nM | 25 nM |  |  |  |  |  |  |  |  |  |  |  | 
CC(C)(C)N1CCC(c2cc(-c3ccc(F)cc3Cl)c3ccc(=O)n(-c4c(Cl)cccc4Cl)c3c2)CC1 | 0.27 nM | 0.31 nM | 2.6 nM | 3.5 h | 14 mL/min/kg | 47.7% | 3.84 L/kg | 52.9 mL/min/kg | 26.8 mL/min/kg | 23.8 L/kg | 83% | 5.59 h | 49% | 13.6 h | 52.8 L/kg
CC(C)(C)N1CCC(Oc2cc(-c3ccccc3Cl)c3ccc(=O)n(-c4c(Cl)cccc4Cl)c3c2)CC1 | 1.8 nM | 1.6 nM | 13 nM | 2.33 h | 34.1 mL/min/kg | 32.3% | 6.17 L/kg |  |  |  |  |  |  |  | 
CC(C)(C)N1CCC(c2cc(-c3ccc(F)cc3F)c3ccc(=O)n(-c4c(Cl)cccc4Cl)c3c2)CC1 | 1.7 nM | 0.14 nM | 2.4 nM | 4.13 h | 11.9 mL/min/kg | 69.3% | 3.82 L/kg | 29.2 mL/min/kg | 5.5 mL/min/kg | 8.99 L/kg | 36.2% | 19.8 h | 56.5% | 9.7 h | 26.2 L/kg
CC(C)(C)N1CCC(c2cc3c(ccc(=O)n3-c3c(Cl)cccc3Cl)c(-c3ccccc3Cl)n2)CC1 |  | 1.4 nM | 6.8 nM | 5.1 h | 25 mL/min/kg | 66% | 10.1 L/kg |  | 37.6 mL/min/kg | 15.1 L/kg | 9.35% | 5.42 h |  |  | 
CN1C2CCC1CC(c1cc(-c3ccc(F)cc3Cl)c3ccc(=O)n(-c4c(Cl)cccc4Cl)c3c1)C2 (stereo not given) | 0.82 nM | 0.61 nM | 7.71 nM | 3.12 h | 27 mL/min/kg | 30% | 6.87 L/kg |  |  |  |  |  |  |  | 
CC1(C)C=C(c2cc(-c3ccc(F)cc3Cl)c3ccc(=O)n(-c4c(Cl)cccc4Cl)c3c2)CC(C)(C)N1 | 3.32 nM | 0.26 nM | 24.2 nM | 3.17 h | 30.1 mL/min/kg | 36% | 7.32 L/kg |  |  |  |  |  |  |  | 
C[C@@H](C(=O)O)N1CCC(c2cc(-c3ccc(F)cc3Cl)c3ccc(=O)n(-c4c(Cl)cccc4Cl)c3c2)CC1 | 3.2 nM | 1.3 nM | 28 nM | 0.44 h | 59 mL/min/kg | 0.11% | 0.7 L/kg |  |  |  |  |  |  |  | 
CC(C)(C)N1CCC(Oc2cc(-c3ccc(F)cc3F)c3ccc(=O)n(-c4c(F)cccc4F)c3c2)CC1 | 2.2 nM | 10.5 nM | 18.4 nM |  |  |  |  |  |  |  |  |  |  |  | 
CC(C)N1C2CCC1CC(c1cc(-c3ccc(F)cc3Cl)c3ccc(=O)n(-c4c(Cl)cccc4Cl)c3c1)C2 (stereo not given) | 0.99 nM | 0.51 nM | 8.51 nM | 3.36 h | 18 mL/min/kg | 44% | 5.23 L/kg |  |  |  |  |  |  |  | 
COC(=O)C(C)(C)N1CCC(c2cc(-c3ccc(F)cc3Cl)c3ccc(=O)n(-c4c(Cl)cccc4Cl)c3c2)CC1 | 2.59 nM | 6.7 nM | 130 nM |  |  |  |  |  |  |  |  |  |  |  | 
CC(C)(C)N1CCC(c2cc3c(ccc(=O)n3-c3c(Cl)cccc3Cl)c(-c3ccc(F)cc3Cl)n2)CC1 | 1.6 nM | 0.38 nM | 5.3 nM | 3.69 h | 39.6 mL/min/kg | 67.3% | 11.4 L/kg | 47.5 mL/min/kg |  |  |  |  | 33% | 5.32 h | 22.1 L/kg
CC(C)(C)N1CCC(c2cc3c(ccc(=O)n3-c3c(Cl)cccc3Cl)c(-c3ccc(F)cc3F)n2)CC1 | 0.69 nM | 0.51 nM | 5.2 nM | 9.05 h | 32.3 mL/min/kg | 62% | 24 L/kg | 41.5 mL/min/kg | 20.5 mL/min/kg | 23.8 L/kg | 99.3% | 15.5 h | 23% | 6.5 h | 21.6 L/kg
CC(C)(C)N1CCC(Oc2cc(-c3ccc(F)cc3F)c3ccc(=O)n(-c4c(Cl)cccc4Cl)c3c2)CC1 | 0.77 nM | 1.87 nM |  |  |  |  |  |  |  |  |  |  |  |  | 
CC(C)(C)N1CCC(c2cc(-c3ccc(F)cc3Cl)c3ccc(=O)n(-c4c(F)cccc4F)c3c2)CC1 | 0.42 nM | 0.3 nM | 1 nM | 9.96 h | 18.5 mL/min/kg | 57% | 3.77 L/kg | 35.1 mL/min/kg |  |  |  |  | 31.5% | 9.55 h | 28.6 L/kg
CC(C)(C)N1CC=C(c2cc(-c3ccc(F)cc3Cl)c3ccc(=O)n(-c4c(Cl)cccc4Cl)c3c2)CC1 | 0.74 nM | 1.15 nM | 50.8 nM |  |  |  |  |  |  |  |  |  |  |  | 
